Test results published in ChEMBL document CHEMBL1150051, “Antiviral (RNA) activity of selected Amaryllidaceae isoquinoline constituents and synthesis of related substances” (J Nat Prod, 1992).
Converted amounts (≈) assume the structure as drawn.

Columns and labels:
[1] = tested on: Japanese encephalitis virus; assay: Antiviral activity against Japanese encephalitis virus Nakayama infected in african green monkey Vero cells assessed as inhibition of virus-induced cytopathic effect by MTT assay; format: functional, organism-based
Yellow fever virus = assay: Antiviral activity against Yellow fever virus Ashibi infected in african green monkey Vero cells assessed as inhibition of virus-induced cytopathic effect by MTT assay; format: functional, organism-based
dengue virus type 4 = assay: Antiviral activity against Dengue virus type 4 infected in african green monkey Vero cells after 6 days by plaque reduction assay; format: functional, organism-based
Punta Toro virus = assay: Antiviral activity against Punta Toro virus Adames infected in african green monkey Vero cells assessed as inhibition of virus-induced cytopathic effect by MTT assay; format: functional, organism-based
Rift Valley fever virus = assay: Antiviral activity against Rift Valley fever virus infected in african green monkey Vero cells after 6 days by plaque reduction assay; format: functional, organism-based
[2] = tested on: Sandfly fever Sicilian virus; assay: Antiviral activity against Sandfly fever sicilian virus infected in african green monkey Vero cells assessed as inhibition of virus-induced cytopathic effect by MTT assay; format: functional, organism-based
[3] = Therapeutic index, ratio of TC50 for african green monkey Vero cells to IC50 for Japanese encephalitis virus Nakayama; format: cell-based; conditions: read-out: TI
[4] = Therapeutic index, ratio of TC50 for african green monkey Vero cells to IC50 for Punta toro virus Adames; format: cell-based; conditions: read-out: TI
[5] = Therapeutic index, ratio of TC50 for african green monkey Vero cells to IC50 for Yellow fever virus Ashibi; format: cell-based; conditions: read-out: TI
[6] = Therapeutic index, ratio of TC50 for african green monkey Vero cells to IC50 for Dengue type 4 virus; format: cell-based; conditions: read-out: TI
[7] = Therapeutic index, ratio of TC50 for african green monkey Vero cells to IC50 for Rift valley fever virus; format: cell-based; conditions: read-out: TI
[8] = Therapeutic index, ratio of TC50 for african green monkey Vero cells to IC50 for Sandfly fever sicilian virus; format: cell-based; conditions: read-out: TI
[9] = Japanese encephalitis virus, Nakayama, Vero, read-out: IC50
[10] = Punta Toro virus, Adames, Vero, read-out: IC50
[11] = Yellow fever virus, Ashibi, Vero, read-out: IC50
[12] = Dengue virus, Vero, 144 h, read-out: IC50
[13] = Rift Valley fever virus, Vero, 144 h, read-out: IC50
[14] = sandfly fever Sicilian virus, Vero, read-out: IC50

Structure (SMILES) | IC50 ([1]; vero) | IC50 (Yellow fever virus; vero) | IC50 (dengue virus type 4; vero) | IC50 (Punta Toro virus; vero) | IC50 (Rift Valley fever virus; vero) | IC50 ([2]; vero) | IC50 [1, 9] | selectivity ratio [3] | inhibition (INH) (Yellow fever virus) | IC50 (Punta Toro virus; [10]) | selectivity ratio [4] | inhibition (INH) [2] | IC50 (Yellow fever virus; [11]) | selectivity ratio [5] | IC50 (dengue virus type 4; [12]) | selectivity ratio [6] | IC50 (Rift Valley fever virus; [13]) | selectivity ratio [7] | IC50 [2, 14] | selectivity ratio [8]
CC(=O)O[C@@H]1[C@H](OC(C)=O)[C@@H](OC(C)=O)C=C2c3cc4c(cc3C(=O)N[C@H]21)OCO4 [LYCORICIDINE TRIACETATE] | Not Active | Not Active | Not Active | Not Active | Not Active | Not Active |  |  |  |  |  |  |  |  |  |  |  |  |  | 
O=C1N[C@H]2C=C[C@@H](O)[C@H](O)[C@@H]2c2cc3c(cc21)OCO3 | Not Active | Not Active |  | Not Active | Not Active | Not Active |  |  |  |  |  |  |  |  |  |  |  |  |  | 
CC(=O)Oc1c2c(cc3c1C(=O)N[C@H]1[C@H](OC(C)=O)[C@H](OC(C)=O)[C@@H](OC(C)=O)C[C@@H]31)OCO2 |  |  |  |  |  |  | 8.1 µg/mL (≈ 17 µM) | 3.5 | 25% | 12 µg/mL (≈ 25.1 µM) | 6.4 | 25% |  |  |  |  |  |  |  | 
O=c1[nH]c2c(c3cc4c(c(O)c13)OCO4)C[C@H](O)[C@@H](O)[C@H]2O [ISONARCICLASINE] |  |  |  |  |  | Not Active | 0.72 µg/mL (≈ 2.34 µM) | 2.1 |  | 0.28 µg/mL (≈ 0.911 µM) | 5.1 |  | 0.22 µg/mL (≈ 0.716 µM) | 4.1 | 0.27 µg/mL (≈ 0.879 µM) | 18.5 | 3.3 µg/mL (≈ 10.7 µM) | 7.6 |  | 
O=C1N[C@H]2[C@H](O)[C@H](O)[C@@H](O)C[C@H]2c2cc3c(c(O)c21)OCO3 |  |  |  |  |  |  | 0.96 µg/mL (≈ 3.1 µM) | 5.1 |  | 2.2 µg/mL (≈ 7.11 µM) | 3.6 | 25% | 1.3 µg/mL (≈ 4.2 µM) | 3.9 | 2.5 µg/mL (≈ 8.08 µM) | > 2 | 1.4 µg/mL (≈ 4.53 µM) | 3.6 |  | 
O=C1N[C@@H]2C(=C[C@H](O)[C@@H](O)[C@H]2O)c2cc3c(c(O)c21)OCO3 [NARCICLASINE] |  |  |  |  | Not Active | Not Active | 0.008 µg/mL (≈ 0.026 µM) | 4.08 |  | 0.0074 µg/mL (≈ 0.0241 µM) | 3.9 |  | 0.006 µg/mL (≈ 0.0195 µM) | 6.1 | 0.015 µg/mL (≈ 0.0488 µM) | 4 |  |  |  | 
CC(=O)O[C@@H]1[C@@H](OC(C)=O)[C@H](OC(C)=O)[C@@H]2c3cc4c(cc3C(=O)N[C@H]2[C@@H]1OC(C)=O)OCO4 |  |  |  | Not Active | Not Active | Not Active | 724 µg/mL (≈ 1520 µM) | 2.8 |  |  |  |  | 262 µg/mL (≈ 549 µM) | 3.8 |  |  |  |  |  | 
COc1cc2c(cc1O)[C@@H]1[C@H](O)[C@@H](O)C=C3CCN(C2)[C@H]31 [PSEUDOLYCORINE] |  |  |  |  |  | Not Active | 0.28 µg/mL (≈ 0.968 µM) | 5 |  | 0.6 µg/mL (≈ 2.07 µM) | 3.9 |  | 0.35 µg/mL (≈ 1.21 µM) | 3.7 | 0.39 µg/mL (≈ 1.35 µM) | 2.6 | 0.63 µg/mL (≈ 2.18 µM) | 6 |  | 
O[C@H]1[C@H]2c3cc4c(cc3CN3CCC(=C[C@@H]1O)[C@H]23)OCO4 [LYCORINE] |  |  |  |  |  | Not Active | 0.33 µg/mL (≈ 1.15 µM) | 8.2 |  | 0.5 µg/mL (≈ 1.74 µM) | 4.6 |  | 0.28 µg/mL (≈ 0.975 µM) | 7.3 | 0.24 µg/mL (≈ 0.835 µM) | 10.4 | 0.93 µg/mL (≈ 3.24 µM) | 5.4 |  | 
O=C1N[C@H]2CC=C[C@H](O)[C@@H]2c2cc3c(cc21)OCO3 | Not Active | Not Active |  | Not Active | Not Active | Not Active |  |  |  |  |  |  |  |  |  |  |  |  |  | 
O=C1N[C@H]2[C@H](O)[C@H](O)[C@@H](O)C[C@@H]2c2cc3c(cc21)OCO3 |  |  |  |  |  | Not Active | 0.039 µg/mL (≈ 0.133 µM) | 5.6 |  | 0.057 µg/mL (≈ 0.194 µM) | 5.9 |  | 0.037 µg/mL (≈ 0.126 µM) | 7.5 | 0.5 µg/mL (≈ 1.7 µM) | 5 | 0.25 µg/mL (≈ 0.852 µM) | 2 |  | 
O=C1N[C@H]2[C@H](O)[C@H](O)[C@@H](O)C[C@@H]2c2cc3c(c(O)c21)OCO3 |  |  |  |  |  | Not Active | 0.004 µg/mL (≈ 0.0129 µM) | 5.6 |  | 0.008 µg/mL (≈ 0.0259 µM) | 3.3 |  | < 0.003 µg/mL | > 8.5 | 0.015 µg/mL (≈ 0.0485 µM) | 4.2 |  |  |  | 
O=c1[nH]c2c(c3cc4c(cc13)OCO4)C[C@H](O)[C@@H](O)[C@H]2O | Not Active |  |  |  |  | Not Active |  |  |  | 7.2 µg/mL (≈ 24.7 µM) | 3.7 |  | 5.7 µg/mL (≈ 19.6 µM) | 4.2 | 8.5 µg/mL (≈ 29.2 µM) | 5.9 | 10 µg/mL (≈ 34.3 µM) | 5 |  | 
O=C1N[C@H]2C=C[C@@H](O)[C@H](OC3CCCCO3)[C@@H]2c2cc3c(cc21)OCO3 (some centres undefined) | Not Active | Not Active |  | Not Active | Not Active | Not Active |  |  |  |  |  |  |  |  |  |  |  |  |  | 
CO[C@@H]1C=C[C@@]23c4cc5c(cc4C(O)O[C@H]2CN(C)[C@H]3C1)OCO5 (some centres undefined) [PRETAZETTINE] |  |  |  |  |  |  | 0.6 µg/mL (≈ 1.81 µM) | 3.8 |  | 0.61 µg/mL (≈ 1.84 µM) | 3.7 |  | 0.5 µg/mL (≈ 1.51 µM) | 5.6 |  |  | 2.9 µg/mL (≈ 8.75 µM) | 3.5 | 0.82 µg/mL (≈ 2.47 µM) | 3
O=C1N[C@H]2[C@H](O)[C@H](O)[C@@H](O)C[C@H]2c2cc3c(cc21)OCO3 |  |  |  |  |  |  | 12.7 µg/mL (≈ 43.3 µM) | 4.9 |  | 14 µg/mL (≈ 47.7 µM) | 4.8 |  | 9.6 µg/mL (≈ 32.7 µM) | 6.6 | 4.4 µg/mL (≈ 15 µM) | 5.7 |  |  | 25 µg/mL (≈ 85.2 µM) | 3
O=C1N[C@H]2C[C@@H](O)[C@@H](O)[C@H](O)[C@@H]2c2cc3c(cc21)OCO3 | Not Active | Not Active |  | Not Active | Not Active | Not Active |  |  |  |  |  |  |  |  |  |  |  |  |  | 
CC(=O)O[C@@H]1[C@@H](OC(C)=O)[C@H](O)[C@@H]2c3cc4c(cc3C(=O)N[C@H]2[C@@H]1OC(C)=O)OCO4 |  |  |  |  | Not Active | Not Active | 4.5 µg/mL (≈ 10.3 µM) | 3.6 |  | 2.5 µg/mL (≈ 5.74 µM) | 4.2 |  | 2.2 µg/mL (≈ 5.05 µM) | 3.8 | < 5 µg/mL | > 20 |  |  |  | 
CC(=O)O[C@@H]1[C@@H](O)[C@@H](O)[C@@H]2NC(=O)c3cc4c(cc3[C@H]2[C@H]1O)OCO4 [LYCORICIDINE MONOACETATE] |  |  |  |  |  | Not Active | 3.3 µg/mL | 3.3 |  | 4.7 µg/mL | 2.1 |  | 4.8 µg/mL | 4.3 | 1.5 µg/mL | 33.3 | 5.5 µg/mL | 4.4 |  | 
